Values joined by “and” are separate entries in the source; they are usually repeats but may differ in a detail not shown here. Equal entries are not always repeated.
System: 633275-114-R-J1-PDC complex spheroids, viability
Assay: Anticancer human tumor 633275-114-R-J1-PDC patient-derived endometrial adenocarcinoma cell line growth inhibition [GQUAD]
Details: for viability, T/C: stronger effect = lower value
From the text: DNA G-quadruplex Stabilizer Agents in Combinations in Complex Spheroids
A high-throughput screen of multi-cell type tumor spheroids was designed to identify active combinations of DNA G-quadruplex stabilizer agents and targeted small molecules. Complex spheroids include a stromal component modeled by human endothelial cells (HUVEC) and fibroblasts modeled by human mesenchymal stem cells (MSCs). The concentration ranges selected for each drug and investigational agent were based upon clinically achievable concentrations if the clinical Cmax of the agent was known.
Compounds. The drugs and investigational agents: pidnarulex (CX-5461; NSC782164), APTO-253 (NSC789042), BRACO-19 (NSC847499), peposertib (NSC802822), ceralasertib (NSC780249), elimusertib (NSC800525), camonsertib (NSC841442), AZD-1390 (NSC803789), olaparib (NSC753686), talazoparib (NSC767125), ART-558 (NSC835418), sotorasib (NSC818433), MRTX-1133 (NSC836407), SN-38 (NSC673596), topotecan (NSC609699), etoposide (NSC141540), doxorubicin (NSC123127), gemcitabine (NSC613327), 5-fluorouracil (NSC19893), paclitaxel (NSC125973), vemurafenib (NSC761431), panobinostat (NSC761190), R-306465 (JNJ-16241199; NSC773264), adavosertib (NSC754352), TP-3654 (NSC805149), carboplatin (NSC241240), KSQ-4279 (NSC840948), and staurosporine (NSC755774) were obtained from the National Cancer Institute (NCI) Developmental Therapeutics Program Chemical Repository (34). The FDA-approved anticancer drug set is available from the NCI Developmental Therapeutics Program. […] The stock solutions were prepared in dimethyl sulfoxide (DMSO, Sigma-Aldrich, St. Louis, MO, cat. D2650) at 800-fold the tested concentration and stored at -70 degrees C prior to their use. All drugs and investigational agents were tested over a range starting from a high concentration at or near the clinical Cmax and decreasing in half-log increments. If the clinical Cmax for an agent had not been determined, the highest concentration tested was 10 microM.
2.3 Cell Culture. All cells were maintained in an incubator at 37 degrees C and 5% CO2 with 95% humidity. The PDC lines were cultured according to standard operating procedures established by the NCI PDMR. All PDCs were thawed and cultured in Matrigel-coated flasks prepared with a working solution of 1X Ham's F-12 nutrient mix, without supplementation (Invitrogen, cat. 11765054), 100 U/mL penicillin-streptomycin (Invitrogen, cat. 15140122), and 2.5% Matrigel (Corning Inc., cat. 354248) for the first three passages. The 857933-349-R-J2-PDC line was cultured in 6C/Colon 1B media, which includes advanced DMEM/F-12 (Thermo Fisher Scientific, cat. 12634028), 10 mM HEPES (Thermo Fisher Scientific, cat. 15630080), 1X GlutaMAX supplement (Thermo Fisher Scientific, cat. 35050061), 0.1 mg/mL primocin (InvivoGen, cat. ant-pm-2), 10% defined fetal bovine serum, heat inactivated (HyClone Laboratories Inc., cat. SH30070.03HI), 50% L-WRN conditioned media (ATCC, cat. CRL-3276), 1.25 mM N-Acetyl-L-cysteine (Sigma-Aldrich, cat. A9165), 10 mM nicotinamide (Sigma-Aldrich, cat. N0636), 1X B-27 supplement (Thermo Fisher Scientific, cat. 17504044), 1X N-2 supplement (Thermo Fisher Scientific, cat. 17502048), 10 microM Y-27632 dihydrochloride (Tocris Bioscience, cat. 1254), and 50 ng/mL human EGF recombinant protein (Thermo Fisher Scientific, cat. PHG0311). The 485176-168-R4-J1-PDC line was cultured in Panc media, which includes all 6C/Colon 1B media components plus 100 ng/mL human FGF-10 (Thermo Fisher Scientific, cat. 100-26), 500 nM SB-431542 (Selleckchem, cat. S1067), and gastrin (Tocris, cat. 3006).
[…]

[1] = curve of first compound, second compound 0.0316 µM
[2] = curve of first compound, second compound 0.1 µM
[3] = curve of first compound, second compound 0.316 µM
[4] = curve of first compound, second compound 1 µM
[5] = curve of first compound, second compound 3.16 µM
[6] = curve of first compound, second compound 10 µM
[7] = second compound 0.0316 µM, first compound 0.0316 µM
[8] = second compound 0.0316 µM, first compound 0.1 µM
[9] = second compound 0.0316 µM, first compound 0.316 µM
[10] = second compound 0.0316 µM, first compound 1 µM
[11] = second compound 0.0316 µM, first compound 3.16 µM
[12] = second compound 0.0316 µM, first compound 10 µM
[13] = second compound 0.1 µM, first compound 0.0316 µM
[14] = second compound 0.1 µM, first compound 0.1 µM
[15] = second compound 0.1 µM, first compound 0.316 µM
[16] = second compound 0.1 µM, first compound 1 µM
[17] = second compound 0.1 µM, first compound 3.16 µM
[18] = second compound 0.1 µM, first compound 10 µM
[19] = second compound 0.316 µM, first compound 0.0316 µM
[20] = second compound 0.316 µM, first compound 0.1 µM
[21] = second compound 0.316 µM, first compound 0.316 µM
[22] = second compound 0.316 µM, first compound 1 µM
[23] = second compound 0.316 µM, first compound 3.16 µM
[24] = second compound 0.316 µM, first compound 10 µM
[25] = second compound 1 µM, first compound 0.0316 µM
[26] = second compound 1 µM, first compound 0.1 µM
[27] = second compound 1 µM, first compound 0.316 µM
[28] = second compound 1 µM, first compound 1 µM
[29] = second compound 1 µM, first compound 3.16 µM
[30] = second compound 1 µM, first compound 10 µM
[31] = second compound 3.16 µM, first compound 0.0316 µM
[32] = second compound 3.16 µM, first compound 0.1 µM
[33] = second compound 3.16 µM, first compound 0.316 µM
[34] = second compound 3.16 µM, first compound 1 µM
[35] = second compound 3.16 µM, first compound 3.16 µM
[36] = second compound 3.16 µM, first compound 10 µM
[37] = second compound 10 µM, first compound 0.0316 µM
[38] = second compound 10 µM, first compound 0.1 µM
[39] = second compound 10 µM, first compound 0.316 µM
[40] = second compound 10 µM, first compound 1 µM
[41] = second compound 10 µM, first compound 3.16 µM
[42] = second compound 10 µM, first compound 10 µM
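Note: spheroids exposed to the agents for seven days.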
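Throughout, for viability, T/C: percent of DMSO vehicle control viability which is 100%.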

## CC1COCCN1c1cc(-c2ccnn2C)c2ccnc(-c3ccn[nH]3)c2n1 (stereo not drawn) + CN(C)c1ccc(Nc2c3ccc(NC(=O)CCN4CCCC4)cc3nc3cc(NC(=O)CCN4CCCC4)ccc23)cc1
[1]
  IC50: 136 nM
[2]
  IC50: 163 nM
[3]
  IC50: 175 nM
[4]
  IC50: 144 nM
[5]
  IC50: 90.5 nM
[6]
  IC50: < 31.6 nM
[7]
  viability, T/C: 77%
[8]
  viability, T/C: 54.4%
[9]
  viability, T/C: 37.3%
[10]
  viability, T/C: 26.1%
[11]
  viability, T/C: 18%
[12]
  viability, T/C: 18.4%
[13]
  viability, T/C: 92.4%
[14]
  viability, T/C: 59.6%
[15]
  viability, T/C: 37.1%
[16]
  viability, T/C: 24.8%
[17]
  viability, T/C: 18.9%
[18]
  viability, T/C: 18.9%
[19]
  viability, T/C: 82.2%
[20]
  viability, T/C: 61.1%
[21]
  viability, T/C: 37.7%
[22]
  viability, T/C: 25.9%
[23]
  viability, T/C: 19.4%
[24]
  viability, T/C: 14.9%
[25]
  viability, T/C: 74.1%
[26]
  viability, T/C: 55.2%
[27]
  viability, T/C: 38.3%
[28]
  viability, T/C: 23.5%
[29]
  viability, T/C: 18.1%
[30]
  viability, T/C: 16.2%
[31]
  viability, T/C: 60.3%
[32]
  viability, T/C: 49.6%
[33]
  viability, T/C: 33.4%
[34]
  viability, T/C: 22.2%
[35]
  viability, T/C: 15.8%
[36]
  viability, T/C: 11.4%
[37]
  viability, T/C: 30.3%
[38]
  viability, T/C: 23.5%
[39]
  viability, T/C: 15.9%
[40]
  viability, T/C: 12.5%
[41]
  viability, T/C: 10.4%
[42]
  viability, T/C: 9.22%

## CC1COCCN1c1cc(C2(S(C)(=N)=O)CC2)nc(-c2ccnc3[nH]ccc23)n1 (stereo not drawn)
Compound 0.0316 µM
  viability, T/C: 94.8% and 102% and 108%
Compound 0.1 µM
  viability, T/C: 97.4% and 89.5% and 94.1%
Compound 0.316 µM
  viability, T/C: 98.2% and 98.4% and 91.8%
Compound 1 µM
  viability, T/C: 79.9% and 72.7% and 79.3%
Compound 3.16 µM
  viability, T/C: 49.4% and 51.8% and 86.4%
Compound 10 µM
  viability, T/C: 31% and 33.7% and 32.8%
Curve of compound
  IC50: 3020 nM and 3220 nM and 6630 nM

## CC1COCCN1c1cc(C2(S(C)(=N)=O)CC2)nc(-c2ccnc3[nH]ccc23)n1 (stereo not drawn) + Cc1[nH]c2ccc(F)cc2c1-c1nc2c3cccnc3c3ncccc3c2[nH]1
[1]
  IC50: 3460 nM
[2]
  IC50: 3070 nM
[3]
  IC50: 3550 nM
[4]
  IC50: 3240 nM
[5]
  IC50: 1290 nM
[6]
  IC50: 1380 nM
[7]
  viability, T/C: 105%
[8]
  viability, T/C: 96.1%
[9]
  viability, T/C: 98.3%
[10]
  viability, T/C: 73.9%
[11]
  viability, T/C: 52.6%
[12]
  viability, T/C: 33.8%
[13]
  viability, T/C: 97.3%
[14]
  viability, T/C: 99.9%
[15]
  viability, T/C: 96.4%
[16]
  viability, T/C: 78.5%
[17]
  viability, T/C: 49.8%
[18]
  viability, T/C: 33.2%
[19]
  viability, T/C: 102%
[20]
  viability, T/C: 97.5%
[21]
  viability, T/C: 90.5%
[22]
  viability, T/C: 81.6%
[23]
  viability, T/C: 50.4%
[24]
  viability, T/C: 33.5%
[25]
  viability, T/C: 90.9%
[26]
  viability, T/C: 92.8%
[27]
  viability, T/C: 87.6%
[28]
  viability, T/C: 73%
[29]
  viability, T/C: 50.7%
[30]
  viability, T/C: 34.3%
[31]
  viability, T/C: 73.7%
[32]
  viability, T/C: 76.4%
[33]
  viability, T/C: 69.9%
[34]
  viability, T/C: 52.6%
[35]
  viability, T/C: 38.4%
[36]
  viability, T/C: 30.3%
[37]
  viability, T/C: 71.7%
[38]
  viability, T/C: 71.5%
[39]
  viability, T/C: 67%
[40]
  viability, T/C: 54.7%
[41]
  viability, T/C: 37.6%
[42]
  viability, T/C: 27.2%

## C=CCn1c(=O)c2cnc(Nc3ccc(N4CCN(C)CC4)cc3)nc2n1-c1cccc(C(C)(C)O)n1 + Cc1cnc(CNC(=O)c2c(=O)c3ccc(N4CCCN(C)CC4)nc3n3c2sc2ccccc23)cn1
[1]
  IC50: 129 nM
[2]
  IC50: < 31.6 nM
[3]
  IC50: < 31.6 nM
[4]
  IC50: < 31.6 nM
[5]
  IC50: < 31.6 nM
[6]
  IC50: < 31.6 nM
[7]
  viability, T/C: 55.6%
[8]
  viability, T/C: 56%
[9]
  viability, T/C: 33.9%
[10]
  viability, T/C: 23.6%
[11]
  viability, T/C: 19.9%
[12]
  viability, T/C: 16.5%
[13]
  viability, T/C: 48.1%
[14]
  viability, T/C: 40%
[15]
  viability, T/C: 28.9%
[16]
  viability, T/C: 22.7%
[17]
  viability, T/C: 21.2%
[18]
  viability, T/C: 15.2%
[19]
  viability, T/C: 43.8%
[20]
  viability, T/C: 39.8%
[21]
  viability, T/C: 24.6%
[22]
  viability, T/C: 21.1%
[23]
  viability, T/C: 20.7%
[24]
  viability, T/C: 16.5%
[25]
  viability, T/C: 34.5%
[26]
  viability, T/C: 32.2%
[27]
  viability, T/C: 22.4%
[28]
  viability, T/C: 19.9%
[29]
  viability, T/C: 20.7%
[30]
  viability, T/C: 17.3%
[31]
  viability, T/C: 31.4%
[32]
  viability, T/C: 26.6%
[33]
  viability, T/C: 18.5%
[34]
  viability, T/C: 22.5%
[35]
  viability, T/C: 25%
[36]
  viability, T/C: 18.3%
[37]
  viability, T/C: 26.8%
[38]
  viability, T/C: 20.5%
[39]
  viability, T/C: 16.8%
[40]
  viability, T/C: 17.8%
[41]
  viability, T/C: 22.4%
[42]
  viability, T/C: 19.5%

Reference: PubChem BioAssay AID2060505 (Molecular Pharmacology Branch, DTP, NCI, 2025)
